Experimental data reported in US5840684A, “Glycopeptide antibiotic derivatives” (Eli Lilly and Company, priority 1995, dated 1998).
≈ marks a conversion by molar mass, not a printed value.

Tests used:
[1] = test system: Staphylococcus aureus 491; test: broth micro-dilution MIC; assay type: cell-based
Description: (§1) The MIC's were determined using a standard broth micro-dilution assay.

[2] = test system: Staphylococcus aureus SA1199A; test: broth micro-dilution MIC; assay type: cell-based
Description: as §1

[3] = test system: Staphylococcus aureus 489; test: broth micro-dilution MIC; assay type: cell-based
Description: as §1

[4] = test system: Staphylococcus aureus 447; test: broth micro-dilution MIC; assay type: cell-based
Description: as §1

[5] = test system: Entercoccus faecium 180-1; test: broth micro-dilution MIC; assay type: cell-based
Description: as §1

[6] = test system: vancomycin-susceptible enterococci; test: broth micro-dilution, mean geometric MIC; assay type: cell-based, Enterococcus faecium and Enterococcus faecalis; settings: enterococci, 24-hour incubation
[7] = test system: Enterococcus gallinarum 245; test: broth micro-dilution MIC; assay type: cell-based; settings: Enterococcus gallinarum 245
Description: (§2) The formula I compounds have in vitro and in vivo activity against Gram-positive pathogenic bacteria. The MIC's were determined using a standard broth micro-dilution assay.

Entercoccus faecium 2041 = test: broth micro-dilution MIC; assay type: cell-based; settings: Entercoccus faecium 2041
Description: as §2

Entercoccus faecium 180 = test: broth micro-dilution MIC; assay type: cell-based; settings: Entercoccus faecium 180
Description: as §2

[8] = test system: vancomycin-resistant enterococci; test: broth micro-dilution, mean geometric MIC; assay type: cell-based, Enterococcus faecium and Enterococcus faecalis; settings: enterococci, 24-hour incubation
[9] = test system: Streptococcus pyogenes C203; test: broth micro-dilution MIC; assay type: cell-based
Description: as §1

Entercoccus faecium 276 = test: broth micro-dilution MIC; assay type: cell-based
Description: as §1

[10] = test system: Staphylococcus aureus X778; test: broth micro-dilution MIC; assay type: cell-based
Description: as §1

[11] = test system: Staphylococcus aureus 446; test: broth micro-dilution MIC; assay type: cell-based
Description: as §1

[12] = test system: Staphylococcus aureus X400; test: broth micro-dilution MIC; assay type: cell-based
Description: as §1

[13] = test system: Staphylococcus aureus SA1199; test: broth micro-dilution MIC; assay type: cell-based
Description: as §1

[14] = test system: Staphylococcus aureus S13E; assay type: cell-based
Description: as §1

[15] = test system: Streptococcus pneumoniae P1; test: broth micro-dilution MIC; assay type: cell-based
Description: as §2

[16] = test system: Staphylococcus haemolyticus 105; test: broth micro-dilution MIC; assay type: cell-based
Description: as §2

[17] = test system: Staphylococcus epidermidis 270; test: broth micro-dilution MIC; assay type: cell-based
Description: as §2

[18] = test system: Staphylococcus haemolyticus 415; test: broth micro-dilution MIC; assay type: cell-based
Description: as §2

[19] = test system: Staphylococcus aureus SA1199B; assay type: cell-based
Description: as §1

Structure (SMILES)	MIC [1] [µg/mL]	MIC [2] [µg/mL]	MIC [4] [µg/mL]	MIC [5] [µg/mL]	mean geometric MIC, Vancomycin Sensitive Strains [6] [µg/mL]	MIC [7] [µg/mL]	MIC (Entercoccus faecium 2041) [µg/mL]	MIC (Entercoccus faecium 180) [µg/mL]	mean geometric MIC, Vancomycin Resistant Strains [8] [µg/mL]	MIC [9] [µg/mL]	MIC (Entercoccus faecium 276) [µg/mL]	MIC [10] [µg/mL]	MIC [11] [µg/mL]	MIC [12] [µg/mL]	MIC [13] [µg/mL]	MIC [14] [µg/mL]	MIC [15] [µg/mL]	MIC [16] [µg/mL]	MIC [17] [µg/mL]	MIC [18] [µg/mL]	other results
CCCCCC1CCC(c2ccc(CNC3(C)CC(OC4C(Oc5c6cc7cc5Oc5ccc(cc5Cl)C(OC5CC(C)(N)C(O)C(C)O5)C5NC(=O)C(NC(=O)C7NC(=O)C(CC(N)=O)NC(=O)C(NC(=O)C(CC(C)C)NC)C(O)c7ccc(c(Cl)c7)O6)c6ccc(O)c(c6)-c6c(O)cc(O)cc6C(C(=O)O)NC5=O)OC(CO)C(O)C4O)OC(C)C3O)cc2)CC1 (centres unmarked) [Compound 34]	8 (≈ 4.36 µM)	2 (≈ 1.09 µM)	8 (≈ 4.36 µM)	2 (≈ 1.09 µM)	3.4	4 (≈ 2.18 µM)	8 (≈ 4.36 µM)	4 (≈ 2.18 µM)	4.0	–	–	–	–	–	–	–	–	–	–	–	MIC [3]: 8 µg/mL (≈ 4.36 µM)
CNC(CC(C)C)C(=O)NC1C(=O)NC(CC(N)=O)C(=O)NC2C(=O)NC3C(=O)NC(C(=O)NC(C(=O)O)c4cc(O)cc(O)c4-c4cc3ccc4O)C(OC3CC(C)(N)C(O)C(C)O3)c3ccc(c(Cl)c3)Oc3cc2cc(c3OC2OC(CO)C(O)C(O)C2OC2CC(C)(NCC=Cc3ccccc3)C(O)C(C)O2)Oc2ccc(cc2Cl)C1O (centres unmarked) [Compound 38]	0.5 (≈ 0.293 µM)	–	–	≤ 0.06	0.42	–	≤ 0.06	≤ 0.06	4.0	≤ 0.06	0.5 (≈ 0.293 µM)	0.5 (≈ 0.293 µM)	0.5 (≈ 0.293 µM)	1 (≈ 0.585 µM)	1 (≈ 0.585 µM)	≤ 0.06	≤ 0.06	1 (≈ 0.585 µM)	0.5 (≈ 0.293 µM)	1 (≈ 0.585 µM)	–
CNC(CC(C)C)C(=O)NC1C(=O)NC(CC(N)=O)C(=O)NC2C(=O)NC3C(=O)NC(C(=O)NC(C(=O)O)c4cc(O)cc(O)c4-c4cc3ccc4O)C(OC3CC(C)(N)C(O)C(C)O3)c3ccc(c(Cl)c3)Oc3cc2cc(c3OC2OC(CO)C(O)C(O)C2OC2CC(C)(NCc3ccc(-c4ccc(OC)cc4)s3)C(O)C(C)O2)Oc2ccc(cc2Cl)C1O (centres unmarked) [Compound 71]	2 (≈ 1.11 µM)	–	4 (≈ 2.23 µM)	–	0.57	8 (≈ 4.46 µM)	1 (≈ 0.557 µM)	4 (≈ 2.23 µM)	11	–	2 (≈ 1.11 µM)	2 (≈ 1.11 µM)	4 (≈ 2.23 µM)	1 (≈ 0.557 µM)	1 (≈ 0.557 µM)	1 (≈ 0.557 µM)	–	16 (≈ 8.91 µM)	2 (≈ 1.11 µM)	8 (≈ 4.46 µM)	MIC [19]: 4 µg/mL (≈ 2.23 µM)
CCN(CC)CCOc1ccc(CNC2(C)CC(OC3C(Oc4c5cc6cc4Oc4ccc(cc4Cl)C(OC4CC(C)(N)C(O)C(C)O4)C4NC(=O)C(NC(=O)C6NC(=O)C(CC(N)=O)NC(=O)C(NC(=O)C(CC(C)C)NC)C(O)c6ccc(c(Cl)c6)O5)c5ccc(O)c(c5)-c5c(O)cc(O)cc5C(C(=O)O)NC4=O)OC(CO)C(O)C3O)OC(C)C2O)cc1 (centres unmarked) [Compound 83]	0.5 (≈ 0.278 µM)	–	2 (≈ 1.11 µM)	0.125 (≈ 0.0695 µM)	1.7	0.5 (≈ 0.278 µM)	0.5 (≈ 0.278 µM)	8 (≈ 4.45 µM)	54	≤ 0.06	–	0.5 (≈ 0.278 µM)	1 (≈ 0.556 µM)	2 (≈ 1.11 µM)	2 (≈ 1.11 µM)	0.125 (≈ 0.0695 µM)	≤ 0.06	2 (≈ 1.11 µM)	2 (≈ 1.11 µM)	4 (≈ 2.22 µM)	MIC [19]: 1 µg/mL (≈ 0.556 µM)
CNC(CC(C)C)C(=O)NC1C(=O)NC(CC(N)=O)C(=O)NC2C(=O)NC3C(=O)NC(C(=O)NC(C(=O)O)c4cc(O)cc(O)c4-c4cc3ccc4O)C(OC3CC(C)(N)C(O)C(C)O3)c3ccc(c(Cl)c3)Oc3cc2cc(c3OC2OC(CO)C(O)C(O)C2OC2CC(C)(NCc3ccc(N4CCC(C)CC4)cc3)C(O)C(C)O2)Oc2ccc(cc2Cl)C1O (centres unmarked) [Compound 129]	0.5 (≈ 0.281 µM)	≤ 0.06	1 (≈ 0.562 µM)	≤ 0.06	1.52	0.125 (≈ 0.0702 µM)	≤ 0.06	4 (≈ 2.25 µM)	27	≤ 0.06	0.125 (≈ 0.0702 µM)	–	2 (≈ 1.12 µM)	–	–	–	≤ 0.06	4 (≈ 2.25 µM)	1 (≈ 0.562 µM)	4 (≈ 2.25 µM)	MIC [3]: ≤ 0.06 µg/mL
CNC(CC(C)C)C(=O)NC1C(=O)NC(CC(N)=O)C(=O)NC2C(=O)NC3C(=O)NC(C(=O)NC(C(=O)O)c4cc(O)cc(O)c4-c4cc3ccc4O)C(OC3CC(C)(N)C(O)C(C)O3)c3ccc(c(Cl)c3)Oc3cc2cc(c3OC2OC(CO)C(O)C(O)C2OC2CC(C)(NCc3ccc(O)c(O)c3)C(O)C(C)O2)Oc2ccc(cc2Cl)C1O (centres unmarked) [Compound 145]	0.5 (≈ 0.292 µM)	≤ 0.06	1 (≈ 0.583 µM)	≤ 0.06	1.3	–	–	4 (≈ 2.33 µM)	–	≤ 0.06	0.125 (≈ 0.0729 µM)	0.125 (≈ 0.0729 µM)	0.5 (≈ 0.292 µM)	–	–	0.125 (≈ 0.0729 µM)	≤ 0.06	2 (≈ 1.17 µM)	1 (≈ 0.583 µM)	8 (≈ 4.67 µM)	MIC [3]: ≤ 0.06 µg/mL; MIC [19]: ≤ 0.06 µg/mL
CNC(CC(C)C)C(=O)NC1C(=O)NC(CC(N)=O)C(=O)NC2C(=O)NC3C(=O)NC(C(=O)NC(C(=O)O)c4cc(O)cc(O)c4-c4cc3ccc4O)C(OC3CC(C)(N)C(O)C(C)O3)c3ccc(c(Cl)c3)Oc3cc2cc(c3OC2OC(CO)C(O)C(O)C2OC2CC(C)(NCc3ccc(N4CCN(C)CC4)cc3)C(O)C(C)O2)Oc2ccc(cc2Cl)C1O (centres unmarked) [Compound 146]	1 (≈ 0.562 µM)	≤ 0.06	2 (≈ 1.12 µM)	≤ 0.06	1.5	0.5 (≈ 0.281 µM)	0.5 (≈ 0.281 µM)	8 (≈ 4.49 µM)	–	≤ 0.06	1 (≈ 0.562 µM)	≤ 0.06	0.5 (≈ 0.281 µM)	0.5 (≈ 0.281 µM)	≤ 0.06	0.5 (≈ 0.281 µM)	≤ 0.06	2 (≈ 1.12 µM)	2 (≈ 1.12 µM)	4 (≈ 2.25 µM)	MIC [19]: ≤ 0.06 µg/mL
CNC(CC(C)C)C(=O)NC1C(=O)NC(CC(N)=O)C(=O)NC2C(=O)NC3C(=O)NC(C(=O)NC(C(=O)O)c4cc(O)cc(O)c4-c4cc3ccc4O)C(OC3CC(C)(N)C(O)C(C)O3)c3ccc(c(Cl)c3)Oc3cc2cc(c3OC2OC(CO)C(O)C(O)C2OC2CC(C)(NCC3=CCC4CC3C4(C)C)C(O)C(C)O2)Oc2ccc(cc2Cl)C1O (centres unmarked) [Compound 170]	0.5 (≈ 0.29 µM)	≤ 0.06	0.5 (≈ 0.29 µM)	≤ 0.06	0.22	4 (≈ 2.32 µM)	≤ 0.06	2 (≈ 1.16 µM)	8.0	≤ 0.06	0.5 (≈ 0.29 µM)	1 (≈ 0.579 µM)	2 (≈ 1.16 µM)	0.5 (≈ 0.29 µM)	1 (≈ 0.579 µM)	–	≤ 0.06	4 (≈ 2.32 µM)	1 (≈ 0.579 µM)	4 (≈ 2.32 µM)	–
CNC(CC(C)C)C(=O)NC1C(=O)NC(CC(N)=O)C(=O)NC2C(=O)NC3C(=O)NC(C(=O)NC(C(=O)O)c4cc(O)cc(O)c4-c4cc3ccc4O)C(OC3CC(C)(N)C(O)C(C)O3)c3ccc(c(Cl)c3)Oc3cc2cc(c3OC2OC(CO)C(O)C(O)C2OC2CC(C)(NCc3ccc(NC(=O)c4cccc(F)c4)cc3)C(O)C(C)O2)Oc2ccc(cc2Cl)C1O (centres unmarked) [Compound 194]	≤ 0.06	≤ 0.06	0.5 (≈ 0.275 µM)	≤ 0.06	0.083	2 (≈ 1.1 µM)	≤ 0.06	≤ 0.06	2.4	≤ 0.06	–	0.5 (≈ 0.275 µM)	≤ 0.06	≤ 0.06	0.5 (≈ 0.275 µM)	≤ 0.06	≤ 0.06	1 (≈ 0.55 µM)	0.5 (≈ 0.275 µM)	2 (≈ 1.1 µM)	–
